Data reported in PMC8445441, “Elucidating the mechanism by which synthetic helper peptides sensitize Pseudomonas aeruginosa to multiple antibiotics” (PLoS Pathogens, 2021).
Where two headings read alike, the source gives them in different places.

What was measured:
P. aeruginosa AUMC-Pa-3 = experiment: microbe, parasite or virus in culture; conditions: strain AUMC-Pa-3; for FICI: antibiotic + D-11 (MICb/MICbc 128/4); for MICa: MIC of the antibiotic: antibiotic alone; for MICa: MIC of the antibiotic / MICac: MIC of the antibiotic in the combination: unit not given; for MICac: MIC of the antibiotic in the combination: with D-11 at MICbc 4
How it was run: (§1)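 MICs were determined by CLSI broth microdilution in MHB, in triplicate: two-fold drug dilutions were mixed 1:1 with bacterial suspension of ~1 × 10^6 CFU/mL and incubated 18 h at 37 °C. The MIC was the lowest concentration with no visible growth.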

P. aeruginosa AUMC-Pa-4 = experiment: microbe, parasite or virus in culture; conditions: strain AUMC-Pa-4; for FICI: antibiotic + D-11 (MICb/MICbc 128/4); for MICa: MIC of the antibiotic: antibiotic alone; for MICa: MIC of the antibiotic / MICac: MIC of the antibiotic in the combination: unit not given; for MICac: MIC of the antibiotic in the combination: with D-11 at MICbc 4
How it was run: as §1

P. aeruginosa AUMC-Pa-5 = experiment: microbe, parasite or virus in culture; conditions: strain AUMC-Pa-5; for FICI: antibiotic + D-11 (MICb/MICbc 64/4); for MICa: MIC of the antibiotic: antibiotic alone; for MICa: MIC of the antibiotic / MICac: MIC of the antibiotic in the combination: unit not given; for MICac: MIC of the antibiotic in the combination: with D-11 at MICbc 4
How it was run: as §1

P. aeruginosa AUMC-Pa-6 = experiment: microbe, parasite or virus in culture; conditions: strain AUMC-Pa-6; for FICI: antibiotic + D-11 (MICb/MICbc 64/4); for MICa: MIC of the antibiotic: antibiotic alone; for MICa: MIC of the antibiotic / MICac: MIC of the antibiotic in the combination: unit not given; for MICac: MIC of the antibiotic in the combination: with D-11 at MICbc 4
How it was run: as §1

P. aeruginosa PAO1 = experiment: microbe, parasite or virus in culture; conditions: PAO1; for MIC: Pseudomonas aeruginosa, PAO1, 18 h, read-out: MICa: the MIC of antibiotics, S3 Table, antibiotic alone; for FICI / MICac: the MIC for the antibiotic in the combination: S3 Table
How it was run: as §1

P. aeruginosa ATCC27853 = experiment: microbe, parasite or virus in culture; parameters: MICa: MIC of the antibiotic / MICac: MIC of the antibiotic in the combination: unit not given beside the values; conditions: strain ATCC27853; for FICI: antibiotic + D-11 (MICb/MICbc 32/4); for MICa: MIC of the antibiotic: antibiotic alone; for MICa: MIC of the antibiotic / MICac: MIC of the antibiotic in the combination: unit not given; for MICac: MIC of the antibiotic in the combination: with D-11 at MICbc 4
Procedure: (§2) The MIC tests were performed in triplicate using broth microdilution in accordance with Clinical and Laboratory Standards Institute (CLSI) recommendations (http://iacld.ir/DL/public/CLSI-2018-M100-S28.pdf). Briefly, drugs were two-fold diluted in MHB and mixed with an equal volume of bacterial suspensions containing approximately 1 × 10^6 CFU/mL in 96-well microliter plate. After 18 h incubation at 37 °C, the MIC values were defined as the lowest concentrations of antibiotics with no visible growth of bacteria. […] Otherwise, 1/4 MIC of the peptide was used in the combination. […] If needed, membrane compounds PG, PE, PC, CL or LPS, or membrane stabilizers MgCl2 or CaCl2, or efflux pumps inhibitor PAβN were added to the broth medium to clarify the effect of other substances on the synergy between peptide and antibiotics. All the tests were performed in triplicate.
(§3) The fractional inhibitory concentration (FIC) indices were calculated using the previously described formula FICI = FICa + FICb = MICac/MICa + MICbc/MICb. The FICI was interpreted according to EUCAST [65] as follows: synergistic, FICI≤0.5; additive, 0.5<FICI≤1; indifferent, 1<FICI<2; antagonistic, FICI ≥2. For the FICI calculations, twice the highest concentration tested was used in the cases where the MIC was not reached.

P. aeruginosa NR-31040 = experiment: microbe, parasite or virus in culture; parameters: MICa: MIC of the antibiotic / MICac: MIC of the antibiotic in the combination: unit not given beside the values; conditions: for FICI: antibiotic + D-11 (MICb/MICbc 128/4); for MICac: MIC of the antibiotic in the combination: with D-11 at MICbc 4
Procedure: as §2, §3

P. aeruginosa NR-31041 = experiment: microbe, parasite or virus in culture; parameters: MICa: MIC of the antibiotic / MICac: MIC of the antibiotic in the combination: unit not given beside the values; conditions: strain NR-31041; for FICI: antibiotic + D-11 (MICb/MICbc 64/4); for MICa: MIC of the antibiotic: antibiotic alone; for MICa: MIC of the antibiotic / MICac: MIC of the antibiotic in the combination: unit not given; for MICac: MIC of the antibiotic in the combination: with D-11 at MICbc 4
Procedure: as §2, §3

P. aeruginosa PA14 = experiment: microbe, parasite or virus in culture; parameters: MICa: MIC of the antibiotic / MICac: MIC of the antibiotic in the combination: unit not given beside the values; conditions: strain PA14; for FICI: antibiotic + D-11 (MICb/MICbc 128/4); for MICa: MIC of the antibiotic: antibiotic alone; for MICa: MIC of the antibiotic / MICac: MIC of the antibiotic in the combination: unit not given; for MICac: MIC of the antibiotic in the combination: with D-11 at MICbc 4
Procedure: as §2, §3

P. aeruginosa PAK = experiment: microbe, parasite or virus in culture; parameters: MICa: MIC of the antibiotic / MICac: MIC of the antibiotic in the combination: unit not given beside the values; conditions: strain PAK; for FICI: antibiotic + D-11 (MICb/MICbc 64/4); for MICa: MIC of the antibiotic: antibiotic alone; for MICa: MIC of the antibiotic / MICac: MIC of the antibiotic in the combination: unit not given; for MICac: MIC of the antibiotic in the combination: with D-11 at MICbc 4
Procedure: as §2, §3

P. aeruginosa HM-214 = conditions: strain HM-214; antibiotic + D-11 (MICb/MICbc 128/4)
Procedure: as §2, §3

P. aeruginosa AUMC-Pa-1 = conditions: strain AUMC-Pa-1; antibiotic + D-11 (MICb/MICbc 128/4)
Procedure: as §2, §3

P. aeruginosa AUMC-Pa-2 = conditions: strain AUMC-Pa-2; antibiotic + D-11 (MICb/MICbc 64/4)
Procedure: as §2, §3

[1] = tested on: clinical P. aeruginosa isolates; experiment: microbe, parasite or virus in culture; conditions: Pseudomonas aeruginosa, 18 h, antibiotic alone
How it was run: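 Broth microdilution per CLSI in MHB, two-fold drug dilutions mixed with an equal volume of bacteria at about 1 × 10^6 CFU/mL. After 18 h at 37 °C, MIC taken as the lowest concentration with no visible growth; run in triplicate.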

[2] = strain NR-31040, unit not given
[3] = read-out: Antibiotic sensibility (MIC) of clinical P. aeruginosa isolate AUMC-Pa-1, strain AUMC-Pa-1
[4] = read-out: Antibiotic sensibility (MIC) of clinical P. aeruginosa isolate AUMC-Pa-2, strain AUMC-Pa-2
[5] = read-out: Antibiotic sensibility (MIC) of clinical P. aeruginosa isolate AUMC-Pa-3, strain AUMC-Pa-3
[6] = read-out: Antibiotic sensibility (MIC) of clinical P. aeruginosa isolate AUMC-Pa-4, strain AUMC-Pa-4
[7] = read-out: Antibiotic sensibility (MIC) of clinical P. aeruginosa isolate AUMC-Pa-5, strain AUMC-Pa-5
[8] = read-out: Antibiotic sensibility (MIC) of clinical P. aeruginosa isolate AUMC-Pa-6, strain AUMC-Pa-6
[9] = read-out: Antibiotic sensibility (MIC) of clinical P. aeruginosa isolate HM-214, strain HM-214
[10] = read-out: Antibiotic sensibility (MIC) of clinical P. aeruginosa isolate NR-31040, strain NR-31040
[11] = read-out: Antibiotic sensibility (MIC) of clinical P. aeruginosa isolate NR-31041, strain NR-31041

C[C@H]1[C@H](NC(=O)/C(=N\OC(C)(C)C(=O)O)c2csc(N)n2)C(=O)N1S(=O)(=O)O [Aztreonam]
FICI (P. aeruginosa AUMC-Pa-3): 0.094
MICa: MIC of the antibiotic (P. aeruginosa AUMC-Pa-3): 16
MICac: MIC of the antibiotic in the combination (P. aeruginosa AUMC-Pa-3): 1
FICI (P. aeruginosa AUMC-Pa-4): 0.156
MICa: MIC of the antibiotic (P. aeruginosa AUMC-Pa-4): 32
MICac: MIC of the antibiotic in the combination (P. aeruginosa AUMC-Pa-4): 4
FICI (P. aeruginosa AUMC-Pa-5): 0.563
MICa: MIC of the antibiotic (P. aeruginosa AUMC-Pa-5): 16
MICac: MIC of the antibiotic in the combination (P. aeruginosa AUMC-Pa-5): 8
FICI (P. aeruginosa AUMC-Pa-6): 0.563
MICa: MIC of the antibiotic (P. aeruginosa AUMC-Pa-6): 16
MICac: MIC of the antibiotic in the combination (P. aeruginosa AUMC-Pa-6): 8
MIC (P. aeruginosa PAO1): 8 µM
FICI (P. aeruginosa PAO1; antibiotic + 2 μM D-11): 0.188
FICI (P. aeruginosa PAO1; antibiotic + 4 μM D-11): 0.156
MICac: the MIC for the antibiotic in the combination (P. aeruginosa PAO1; with 2 μM D-11): 1 µM
MICac: the MIC for the antibiotic in the combination (P. aeruginosa PAO1; with 4 μM D-11): 0.25 µM
FICI (P. aeruginosa ATCC27853): 0.625
MICa: MIC of the antibiotic (P. aeruginosa ATCC27853): 8
MICac: MIC of the antibiotic in the combination (P. aeruginosa ATCC27853): 4
FICI (P. aeruginosa NR-31040; strain NR-31040): 0.281
MICa: MIC of the antibiotic (P. aeruginosa NR-31040; strain NR-31040, antibiotic alone, unit not given): 4
MICac: MIC of the antibiotic in the combination (P. aeruginosa NR-31040; [2]): 1
FICI (P. aeruginosa NR-31041): 0.188
MICa: MIC of the antibiotic (P. aeruginosa NR-31041): 64
MICac: MIC of the antibiotic in the combination (P. aeruginosa NR-31041): 8
FICI (P. aeruginosa PA14): 0.531
MICa: MIC of the antibiotic (P. aeruginosa PA14): 16
MICac: MIC of the antibiotic in the combination (P. aeruginosa PA14): 8
FICI (P. aeruginosa PAK): 0.563
MICa: MIC of the antibiotic (P. aeruginosa PAK): 8
MICac: MIC of the antibiotic in the combination (P. aeruginosa PAK): 4
FICI (P. aeruginosa HM-214): 0.531
FICI (P. aeruginosa AUMC-Pa-1): 0.094
FICI (P. aeruginosa AUMC-Pa-2): 1.063
MIC [1, 3]: 32 µM
MIC [1, 4]: 4 µM
MIC [1, 5]: 16 µM
MIC [1, 6]: 32 µM
MIC [1, 7]: 16 µM
MIC [1, 8]: 16 µM
MIC [1, 9]: 16 µM
MIC [1, 10]: 4 µM
MIC [1, 11]: 64 µM

CN(C)[C@@H]1C(O)=C(C(N)=O)C(=O)[C@@]2(O)C(O)=C3C(=O)c4c(O)c(NC(=O)CN5CCCC5)cc(F)c4C[C@H]3C[C@@H]12 [Eravacycline]
FICI (P. aeruginosa AUMC-Pa-3): 0.156
MICa: MIC of the antibiotic (P. aeruginosa AUMC-Pa-3): 8
MICac: MIC of the antibiotic in the combination (P. aeruginosa AUMC-Pa-3): 1
FICI (P. aeruginosa AUMC-Pa-4): 0.156
MICa: MIC of the antibiotic (P. aeruginosa AUMC-Pa-4): 16
MICac: MIC of the antibiotic in the combination (P. aeruginosa AUMC-Pa-4): 2
FICI (P. aeruginosa AUMC-Pa-5): 1.063
MICa: MIC of the antibiotic (P. aeruginosa AUMC-Pa-5): 8/8
MICac: MIC of the antibiotic in the combination (P. aeruginosa AUMC-Pa-5): 8/8
FICI (P. aeruginosa AUMC-Pa-6): 0.313
MICa: MIC of the antibiotic (P. aeruginosa AUMC-Pa-6): 8
MICac: MIC of the antibiotic in the combination (P. aeruginosa AUMC-Pa-6): 2
MIC (P. aeruginosa PAO1): 4 µM
FICI (P. aeruginosa PAO1; antibiotic + 2 μM D-11): 0.094
MICac: the MIC for the antibiotic in the combination (P. aeruginosa PAO1; with 2 μM D-11): 0.125 µM
MICac: the MIC for the antibiotic in the combination (P. aeruginosa PAO1; with 4 μM D-11): 0.0625 µM
FICI (P. aeruginosa ATCC27853): 0.250
MICa: MIC of the antibiotic (P. aeruginosa ATCC27853): 8
MICac: MIC of the antibiotic in the combination (P. aeruginosa ATCC27853): 1
MIC (P. aeruginosa NR-31040; Pseudomonas aeruginosa, NR31040, 18 h, read-out: MICa: MIC of the antibiotic): 8 µM
FICI (P. aeruginosa NR-31040; strain NR-31040): 0.094
MICac: MIC of the antibiotic in the combination (P. aeruginosa NR-31040; [2]): 0.5
FICI (P. aeruginosa NR-31041): 0.188
MICa: MIC of the antibiotic (P. aeruginosa NR-31041): 8
MICac: MIC of the antibiotic in the combination (P. aeruginosa NR-31041): 1
FICI (P. aeruginosa PA14): 0.156
MICa: MIC of the antibiotic (P. aeruginosa PA14): 8
MICac: MIC of the antibiotic in the combination (P. aeruginosa PA14): 1
FICI (P. aeruginosa PAK): 0.188
MICa: MIC of the antibiotic (P. aeruginosa PAK): 8
MICac: MIC of the antibiotic in the combination (P. aeruginosa PAK): 1
FICI (P. aeruginosa HM-214): 0.281
FICI (P. aeruginosa AUMC-Pa-1): 0.156
FICI (P. aeruginosa AUMC-Pa-2): 0.313
MIC [1, 3]: 16 µM
MIC [1, 4]: 8 µM
MIC [1, 5]: 8 µM
MIC [1, 6]: 16 µM
MIC [1, 7]: 8 µM
MIC [1, 8]: 8 µM
MIC [1, 9]: 8 µM
MIC [1, 10]: 8 µM
MIC [1, 11]: 8 µM
